{
  "source": "paper PMC7556031",
  "about": "“Tofacitinib and Baricitinib Are Taken up by Different Uptake Mechanisms Determining the Efficacy of Both Drugs in RA” (International Journal of Molecular Sciences, 2020)",
  "biological_target": "T1, hMATE1 (multidrug and toxin extrusion protein 1) (Homo sapiens, UniProt Q96FL8)",
  "T1 construct": "gene SLC47A1; hMATE1 stably transfected in HEK293 cells",
  "T1 sequence (Q96FL8 1-570)": "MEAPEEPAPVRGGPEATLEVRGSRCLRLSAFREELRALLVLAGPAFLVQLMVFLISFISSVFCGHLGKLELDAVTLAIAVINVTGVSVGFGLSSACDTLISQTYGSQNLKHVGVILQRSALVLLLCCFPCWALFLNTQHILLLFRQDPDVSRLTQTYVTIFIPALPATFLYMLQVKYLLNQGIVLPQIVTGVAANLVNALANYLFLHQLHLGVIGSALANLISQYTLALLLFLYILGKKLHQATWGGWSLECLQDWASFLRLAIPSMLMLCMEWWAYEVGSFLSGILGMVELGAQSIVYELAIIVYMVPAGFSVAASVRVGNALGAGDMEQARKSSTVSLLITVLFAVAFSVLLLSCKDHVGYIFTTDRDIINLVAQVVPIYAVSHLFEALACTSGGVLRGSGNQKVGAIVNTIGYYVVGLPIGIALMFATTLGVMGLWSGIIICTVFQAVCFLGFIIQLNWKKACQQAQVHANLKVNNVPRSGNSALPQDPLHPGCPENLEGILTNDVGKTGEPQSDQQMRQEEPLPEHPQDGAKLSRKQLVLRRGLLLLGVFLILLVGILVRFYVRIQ",
  "test": "cis-inhibition of ASP+ uptake in hMATE1-HEK293 cells after acidification; supported by LC/MS of temperature-dependent tofacitinib export",
  "format": "cell-based",
  "data": [
    {"smiles": "C[C@@H]1CCN(C(=O)CC#N)C[C@@H]1N(C)c1ncnc2[nH]ccc12", "note": "[Tofacitinib]", "values": [
      {"measurement": "IC50", "result": 19.8, "unit": "µM"}
    ]}
  ]
}
